According to US7371560B2, “Photosynthetic hydrogen production” (priority 2003, dated 2008):

Key:
[1] = tested on: Chlamydomonas reinhardtii WT cultures; experiment: H2 production ± CCCP, Clark type hydrogen electrode, WT cultures; type: cell-based; conditions: CCCP added to WT culture
Experimental: (§1) H2 concentrations were measured in the liquid phase and the gaseous head space above, both for WT and Stm6 cultures (cell density of OD750 nm=0.8). Dissolved H2 concentrations were measured in 1 liter dark-adapted cell cultures in TAP medium replete with, or depleted of, sulfur using a Clark type hydrogen electrode (Unisense PA2000, Denmark) upon white light illumination. H2 concentrations in the presence and absence of 5 μM carbonylcyanide m-chlorophenylhydrazone (CCCP) were measured using dark adapted cultures (1 h) before and after illumination (white light, 300 μmol m^−2·s^−1) The H2 concentration in the gaseous head space was measured using a mass spectrometer (Delta Finnigan MAT). Cell cultures were dark-adapted for 30 min in a weak vacuum to deplete the medium and headspace of O2 and H2, prior to illumination with continuous or pulsed (3.3 Hz frequency, 5 μs flashes; light intensity range of 15-3000 μmol·m^−2·s^−1) white light.

[2] = tested on: Chlamydomonas reinhardtii Stm6 cultures; experiment: H2 production ± CCCP, Clark type hydrogen electrode, Stm6 cultures; type: cell-based
Experimental: as §1

N#CC(C#N)=NNc1cccc(Cl)c1 [CCCP, carbonylcyanide m-chlorophenylhydrazone]
effect of CCCP on H2 production [1]: hardly any effect | period of increased H2 production with CCCP ([2]; 5 μM CCCP, Stm6 culture): at least 30 min | H2 production rate with CCCP, higher than in the WT ([2]; 5 μM CCCP, dark adapted cultures (1 h), white light 300 μmol m^−2·s^−1, relative to WT): ~1500% | H2 production rate in the presence of CCCP, times higher than the WT ([2]; Stm6 in the presence of CCCP, relative to WT): 15 ×
